Reference: PubChem BioAssay AID743372 (Vanderbilt Specialized Chemistry Center, 2014)

molecular target: D(4) dopamine receptor (Homo sapiens) (UniProt P21917); test: D4 dopamine receptor antagonists, confirmation, cell-based, human (AID 743372); conditions: cells expressing human D4 receptor, antagonist mode

IC50, active:
Fc1cccc(F)c1CN1CCOC(CCc2ccccc2)C1 (stereo unspecified) 3.88 µM
Clc1ccc(CN2CCOC(CCc3ccccc3)C2)cc1 (stereo unspecified) 0.29 µM
FC(F)(F)Oc1ccc(CN2CCO[C@H](CCc3ccccc3)C2)cc1 0.23 µM
FC(F)(F)Oc1ccc(CN2CCOC(CCc3ccccc3)C2)cc1 (stereo unspecified) 0.16 µM
Fc1ccc(CN2CCOC(CCc3ccccc3)C2)cc1 (stereo unspecified) 1.14 µM
COc1ccc(CN2CCO[C@@H](CCc3ccccc3)C2)cc1 0.1 µM
Clc1ccc(CN2CCO[C@H](CCc3ccccc3)C2)cc1 0.13 µM
FC(F)(F)Oc1cccc(CN2CCOC(CCc3ccccc3)C2)c1 (stereo unspecified) 0.39 µM
Cc1ccccc1CN1CCOC(CCc2ccccc2)C1 (stereo unspecified) 3.68 µM
c1ccc(CCC2CN(Cc3ccccc3)CCO2)cc1 (stereo unspecified) 1.48 µM
COc1ccc(CN2CCOC(CCc3ccccc3)C2)cc1 (stereo unspecified) 0.17 µM
